In PMC10384602 (Pharmaceuticals, 2023):

Legend:
[1] = logD7.4 in octanol/buffer mixture; format: physicochemical; conditions: pH 7.4, room temperature
[2] = Radiochemical stability of the formulated product on standing at room temperature; format: physicochemical; conditions: after standing for 90 min at room temperature

logD [1]: 3.59
radiochemical purity after standing [2]: > 95%
SMILES: O=C(Cc1ccccc1)Nc1nnc(CCSCCc2nnc(N[11C](=O)Cc3ccccc3)s2)s1 [[^11C]BPTES]
